Consider 25 molecules from ChEMBL document CHEMBL1201862, “PubChem BioAssay data set” (2004).

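1) Cells in 96-well plates. 2) Compound, 48 h, 5 concentrations. 3) Linear interpolation between surrounding doses. 4) Unreached endpoint = highest concentration. At the GI50, growth is halved.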 Calls of active or inactive are those of the source. Cut-off read from the data, not from the text of the source: active = GI50 up to about 1.1 µM and inactive = higher. Some results are limits rather than exact numbers.

Among the test systems are DLD-1; DMS-273; SNB-78; KM-20L2; HOP-18; LXFL 529; RXF 631; M19-MEL; XF498.
What all share (test): NCI anticancer screen, dose series, 48 h

Regarding `CCCCCN(CCCCC)C(=O)[C@@H](CCC(=O)OCc1ccccc1)NC(=O)c1cc2ccccc2[nH]1`, the GI50 with DLD-1 was > 100 µM (inactive); in the assay with DMS-273, > 100 µM (inactive); in the assay on SNB-78, > 100 µM (inactive); in the assay with KM-20L2, > 100 µM (inactive); with HOP-18, > 100 µM (inactive); with LXFL 529, 8.85 µM (inactive). Further, the GI50 in the assay on RXF 631 is > 100 µM (inactive).

For `CCOC(=O)CC1=N/C(=N/C(=N)N[N+](=O)[O-])SC1`, the GI50 in the assay with DLD-1, in the assay on DMS-273, with SNB-78, with M19-MEL, in the assay with KM-20L2 and with HOP-18 was > 100 µM (inactive) in each case. The GI50 with LXFL 529 is > 100 µM (inactive).

For the molecule `Cc1ccc(C(=O)C(C2=Nc3nnc(N)n3C2=O)C2=Nc3nnc(N)n3C2=O)cc1`, the GI50 in the assay with DLD-1, with DMS-273, in the assay with SNB-78, in the assay with M19-MEL, in the assay with KM-20L2 and in the assay on XF498 was > 100 µM (inactive) throughout. In addition, the GI50 in the assay with LXFL 529 was > 100 µM (inactive).

`CC1SC2=NC3=C(c4ccccc4C3=O)C(c3ccc(Br)cc3)N2C1=O` (centres undefined): the GI50 is 76 µM (inactive) in the assay with DLD-1; > 100 µM (inactive) in the assay on DMS-273; 56.9 µM (inactive) in the assay with M19-MEL; > 100 µM (inactive) in the assay on KM-20L2; 43.8 µM (inactive) with XF498; 53 µM (inactive) in the assay on LXFL 529.

For the molecule `CC1(Br)CC2OC3(Br)C=CC(C)(O)C2(CC1=O)C3(C)C` (centres undefined), the GI50 in the assay with DLD-1 is 98.2 µM (inactive); in the assay with DMS-273 it was > 100 µM (inactive); in the assay on SNB-78 it was > 100 µM (inactive); with KM-20L2, > 100 µM (inactive); with HOP-18, > 100 µM (inactive); in the assay with XF498 it was > 90.4 µM (inactive). Further, the GI50 with LXFL 529 was 98.9 µM (inactive).

For the molecule `CCc1cccc(C)c1NC(=O)C(=O)Cc1nc2ccccc2o1`, the GI50 in the assay with DLD-1, with SNB-78, in the assay on M19-MEL, in the assay with KM-20L2, in the assay with HOP-18 and with XF498 was > 100 µM (inactive) in each case. Also, the GI50 in the assay with LXFL 529 is > 100 µM (inactive).

As for `O=C1C2C(C(=O)N1O)N(Cc1ccccc1)C(=O)N2Cc1ccccc1` (centres undefined), the GI50 with DLD-1, with SNB-78, in the assay on M19-MEL, in the assay on KM-20L2, with XF498 and in the assay with LXFL 529 was > 100 µM (inactive) throughout.

Regarding `O=C1O[C@@H](c2ccccc2)C[C@H]1CN1CCOCC1`, the GI50 in the assay with DLD-1 was > 100 µM (inactive); in the assay on SNB-78, > 100 µM (inactive); in the assay with KM-20L2, > 100 µM (inactive); in the assay on XF498, 81.8 µM (inactive); in the assay with LXFL 529, > 100 µM (inactive); in the assay on RXF 631 it was > 100 µM (inactive).

In the case of `O=C(Cc1ccccc1)NN1C(=O)C(Cl)C1c1cc(Br)cc(Br)c1O` (centres undefined), the GI50 with DLD-1 was 8.81 µM (inactive); in the assay on DMS-273, 12.5 µM (inactive); with SNB-78 it was 24.4 µM (inactive); in the assay with M19-MEL, 15.8 µM (inactive); in the assay on KM-20L2, 24.7 µM (inactive); in the assay on HOP-18 it was 7.83 µM (inactive). Also, the GI50 was 19.8 µM (inactive) with XF498 and 13.5 µM (inactive) in the assay with LXFL 529.

Regarding `N#CCCCCCOCCOCCOCCOCCOCCCCCC#N`, the GI50 in the assay on DLD-1, with DMS-273, in the assay on M19-MEL, with KM-20L2, with HOP-18 and in the assay with LXFL 529 was > 100 µM (inactive) each time. Besides, the GI50 in the assay on RXF 631 is > 100 µM (inactive).

On to `C/C(CC(=O)Nc1cccc(Cl)c1C)=N\NC(=O)c1ccncc1`, for which the GI50 in the assay on DLD-1, in the assay on DMS-273, in the assay on SNB-78, with M19-MEL, with KM-20L2 and in the assay with XF498 was > 100 µM (inactive) in each case. The GI50 with LXFL 529 is > 100 µM (inactive).

Regarding `CCOC(=O)C1(C(=O)OCC)OC(=O)NC2=C1CCCC2`, the GI50 with DLD-1 was > 100 µM (inactive); in the assay on DMS-273 it was > 100 µM (inactive); in the assay on SNB-78 it was > 100 µM (inactive); with M19-MEL, > 100 µM (inactive); in the assay with KM-20L2, > 100 µM (inactive); in the assay on HOP-18, 19.5 µM (inactive). Besides, the GI50 in the assay with XF498 and in the assay with LXFL 529 was > 100 µM (inactive) throughout.

For `NC(=O)N1N=C2c3ccccc3OC[C@H]2[C@@H]1c1ccccc1`, the GI50 with DLD-1 was 6.5 µM (inactive); in the assay with DMS-273, 9.1 µM (inactive); in the assay with SNB-78, > 38.5 µM (inactive); in the assay on M19-MEL, 49.7 µM (inactive); with KM-20L2, 23.4 µM (inactive); in the assay on HOP-18 it was 18.7 µM (inactive). Besides, the GI50 in the assay on XF498 is 10.7 µM (inactive); in the assay with LXFL 529, 31 µM (inactive).

With `OC1/C(=C/c2ccccc2)CNC/C1=C\c1ccccc1` (centres undefined), the GI50 with DLD-1, in the assay with DMS-273, in the assay on SNB-78, in the assay with M19-MEL, in the assay on KM-20L2 and with HOP-18 was > 100 µM (inactive) each time. For the same molecule, the GI50 with LXFL 529 is > 100 µM (inactive).

Take `CSc1nc(-c2ccccc2)c2c(n1)-c1ccccc1CC2`: the GI50 in the assay with DLD-1 was > 100 µM (inactive); in the assay on M19-MEL it was > 100 µM (inactive); with KM-20L2, 78.5 µM (inactive); with HOP-18, > 100 µM (inactive); in the assay with XF498, > 100 µM (inactive); with LXFL 529, > 100 µM (inactive). For the same molecule, the GI50 in the assay with RXF 631 is > 100 µM (inactive).

Turning to `O=[N+]([O-])c1ccc(-n2nnc(C3=NCCCN3)c2-c2ccc(Cl)cc2)cc1`, the GI50 with DLD-1 was > 100 µM (inactive); in the assay with DMS-273, > 100 µM (inactive); with SNB-78, > 100 µM (inactive); with M19-MEL, 69.5 µM (inactive); in the assay with KM-20L2, > 100 µM (inactive); with HOP-18 it was > 100 µM (inactive). Further, the GI50 in the assay on XF498 and in the assay with LXFL 529 was > 100 µM (inactive) throughout.

For `O=Cc1ccc2c(c1-c1c(C=O)ccc3c1OCO3)OCO2`, the GI50 in the assay on DLD-1, in the assay on DMS-273, in the assay with SNB-78, in the assay on M19-MEL, in the assay on KM-20L2 and with HOP-18 was > 100 µM (inactive) each time. Also, in the assay on LXFL 529, the GI50 is > 100 µM (inactive).

As to `COc1ccc2c(c1)CCc1c(-c3n[nH]c4c3CCc3cc(OC)ccc3-4)n[nH]c1-2`, the GI50 was 54.5 µM (inactive) with DLD-1; 17.4 µM (inactive) in the assay with DMS-273; 44.1 µM (inactive) in the assay with SNB-78; 33 µM (inactive) with M19-MEL; 47.5 µM (inactive) in the assay with KM-20L2; 25.8 µM (inactive) with HOP-18. In addition, the GI50 with XF498 is 32.8 µM (inactive); in the assay on LXFL 529, 33.1 µM (inactive).

Consider `O=C(Sc1sc(=S)sc1SC(=O)c1ccccc1)c1ccccc1`, for which the GI50 in the assay with DMS-273 is 53 µM (inactive); with SNB-78, > 100 µM (inactive); in the assay on M19-MEL, 21.7 µM (inactive); in the assay with KM-20L2, 48.2 µM (inactive); in the assay with HOP-18, > 100 µM (inactive); in the assay with XF498 it was 55.2 µM (inactive). Besides, in the assay with LXFL 529, the GI50 is > 100 µM (inactive).

`C#CCC(N)(CO)C(=O)O` (centres undefined): the GI50 in the assay with DLD-1, with DMS-273, in the assay on SNB-78, in the assay with M19-MEL, with HOP-18 and with XF498 was > 100 µM (inactive) throughout. In addition, in the assay with LXFL 529, the GI50 was > 100 µM (inactive).

In the case of `COCC(OC)C(CC=C(C#N)C#N)OC` (centres undefined), the GI50 in the assay on DMS-273, in the assay with SNB-78, with M19-MEL, in the assay with KM-20L2, with XF498 and in the assay on LXFL 529 was > 100 µM (inactive) each time.

Turning to `CC(C)(O)[C@@H]1CCC(C)([C@H]2[C@@H](O)CC3(C)C4CC(OC5OC(CO)C(O)C(O)C5O)C5C(C)(C)[C@@H](OC6OCC(O)C(O)C6O)CC[C@@]56C[C@@]46CC[C@]23C)O1` (some centres undefined), the GI50 with DLD-1, in the assay with DMS-273, with SNB-78, with M19-MEL, with KM-20L2 and in the assay with HOP-18 was > 100 µM (inactive) throughout. Besides, the GI50 in the assay on XF498 and in the assay with LXFL 529 was > 100 µM (inactive) throughout.

Regarding `COc1cc2c(c(OC)c1OC)-c1ccc(SC)c(=O)cc1[C@@H](NC(=O)c1cccc([N+](=O)[O-])c1)CC2`, the GI50 in the assay on DLD-1 was < 0.01 µM (active); in the assay with DMS-273 it was < 0.01 µM (active); in the assay with SNB-78 it was 0.0243 µM (active); in the assay with M19-MEL, 0.0296 µM (active); with KM-20L2, 0.0172 µM (active); with XF498 it was 0.0205 µM (active). The GI50 with LXFL 529 was 0.0239 µM (active); with RXF 631, 0.0164 µM (active).

In the case of `Cn1c(=O)nc2n(-c3cccc(Br)c3)c3ccccc3nc-2c1=O`, the GI50 in the assay with DLD-1 was 5.41 µM (inactive); in the assay on DMS-273, 3.1 µM (inactive); with SNB-78, 12.2 µM (inactive); with M19-MEL, 1.43 µM (inactive); in the assay with KM-20L2, 2.43 µM (inactive); in the assay on HOP-18 it was 5.9 µM (inactive). Moreover, the values for the GI50 with XF498 and in the assay on LXFL 529 were 5.36 µM (inactive) and 6.1 µM (inactive), respectively.

With `CCN(CC)CCNc1ccc2nnn3c4ccc(OC)cc4c(=O)c1c23`, the GI50 in the assay on DLD-1 is 5.05 µM (inactive); in the assay on SNB-78 it was 10.7 µM (inactive); with M19-MEL, 13.5 µM (inactive); in the assay on KM-20L2 it was 5.27 µM (inactive); in the assay with HOP-18, 0.507 µM (active); in the assay on LXFL 529, 9.62 µM (inactive). In the assay with RXF 631, the GI50 was 3.83 µM (inactive).
